Experimental data reported in patent US20260306680A1, “RADIOLABELED COMPOUNDS TARGETING THE PROSTATE-SPECIFIC MEMBRANE ANTIGEN” (PROVINCIAL HEALTH SERVICES AUTHORITY, priority 2022, published 2026).
Read-outs that look alike come from different tables or passages of the source.

Experiments:
[1] = Ex vivo biodistribution in mice bearing LNCaP tumor xenografts; parameters: species or system mouse (male NOD-scid IL2Rg^null (NSG)); details: mouse, iv, mean ± SD
Method: (§1) All imaging and biodistribution studies used male NOD-scid IL2Rg^null (NSG) mice and conducted according to the guidelines established by the Canadian Council on Animal Care and approved by Animal Ethics Committee of the University of British Columbia. For tumor inoculations, mice were anesthetized via inhalation of 2% isoflurane in oxygen and implanted subcutaneously with 5×10^6 LNCaP cells below the left shoulder. Imaging and biodistribution studies were performed only after tumors grew to 5-8 mm in diameter.
(§2) For PET/CT imaging studies, approximately 5 MBq of the ^18F-labeled tracer was injected through the tail vein. While for ex vivo biodistribution studies, mice were injected with around 2 MBq of the ^18F-labeled tracer through the tail vein. Mice were allowed to recover and roam freely in the cages after injecting the tracer. At 45 min post-injection, imaging mouse were sedated again and positioned on the scanner. A 10 min CT scan was conducted first to allow for localization and attenuation correction for later reconstruction of PET images. A 10 min PET image was acquired following CT scan. Heating pads were used during the entire procedure to keep the mice warm and circulate the blood. At 1 h post-injection, all mice for biodistribution study were euthanized with blood drawn from heart, and all tissues of interest were collected, rinsed with PBS, blotted dry, weighed, and counted using an automated gamma counter. The uptake in each organ/tissue was normalized to the injected dose and expressed as the percentage of the injected dose per gram of tissue (% ID/g).
(§3) Representative maximum intensity projection PET images of ^18F-KLF1007-pyridine-BF3 and ^18F-KL01040 acquired at 1 h post-injection from LNCaP tumor-bearing mice is enumerated in Table 4 and shown in FIG. 1. Representative maximum intensity projection PET images of ^18F-KL01120 and ^18F-KL01130 acquired at 1 h post-injection from LNCaP tumor-bearing mice is also enumerated in Table 5 and shown in FIG. 2 (^18F-KL1120) and enumerated in Table 6 and shown in FIG. 3 (^18F-KL01130).

LNCaP tumor xenografts = test: as above; parameters: species or system mouse (male NOD-scid IL2Rg^null (NSG)); details: mean ± SD
Method: as §1, §2, §3

[2] = test system: glutamate carboxypeptidase II; details: compared to ^18F-DCFPyL; cited from earlier work
[3] = 1 h Blocked (co-injection of 2-PMPA, 0.5 mg)

Question: For `O=C(O)CC[C@H](NC(=O)N[C@@H](CCCCNC(=O)[C@H](Cc1c2ccccc2cc2ccccc12)NC(=O)[C@H]1CC[C@H](CNC(=O)[C@H](CCNC(=O)c2ccc(F)nc2)NC(=O)CCC(=O)N(CC(=O)O)CC(=O)O)CC1)C(=O)O)C(=O)O` [^18F-KL01120], which tissue uptake at 1 h ([1]; adrenal glands, 1 h Blocked (co-injection of 2-PMPA, 0.5 mg), read-out: Adrenal Glands uptake) is on record?
Answer: Its tissue uptake at 1 h is 0.48 ± 0.21 %ID/g.

Question: And the tissue uptake at 1 h ([1]; adrenal glands, 1 h post-injection, read-out: Adrenal Glands uptake)?
Answer: Its tissue uptake at 1 h is 11.2 ± 4.71 %ID/g.

Question: And the tissue uptake at 1 h ([1]; blood, 1 h Blocked (co-injection of 2-PMPA, 0.5 mg), read-out: Blood uptake)?
Answer: Its tissue uptake at 1 h is 0.86 ± 0.2 %ID/g.

Question: What about the tissue uptake at 1 h ([1]; blood, 1 h post-injection, read-out: Blood uptake) of the same compound?
Answer: The tissue uptake at 1 h was 0.71 ± 0.14 %ID/g.

Question: What about the tissue uptake at 1 h ([1]; bone, 1 h Blocked (co-injection of 2-PMPA, 0.5 mg), read-out: Bone uptake) of the same compound?
Answer: Its tissue uptake at 1 h is 0.35 ± 0.23 %ID/g.

Question: What about the tissue uptake at 1 h ([1]; bone, 1 h post-injection, read-out: Bone uptake) of the same compound?
Answer: The tissue uptake at 1 h was 0.92 ± 0.46 %ID/g.

Question: What about the tissue uptake at 1 h ([1]; brain, 1 h Blocked (co-injection of 2-PMPA, 0.5 mg), read-out: Brain uptake) of the same compound?
Answer: The tissue uptake at 1 h was 0.03 %ID/g.

Question: And the tissue uptake at 1 h ([1]; brain, 1 h post-injection, read-out: Brain uptake)?
Answer: Its tissue uptake at 1 h is 0.05 ± 0.01 %ID/g.

Question: And the tissue uptake at 1 h ([1]; fat, 1 h Blocked (co-injection of 2-PMPA, 0.5 mg), read-out: Fat uptake)?
Answer: Its tissue uptake at 1 h is 0.18 ± 0.05 %ID/g.

Question: What about the tissue uptake at 1 h ([1]; fat, 1 h post-injection, read-out: Fat uptake) of the same compound?
Answer: The tissue uptake at 1 h was 1.57 ± 0.55 %ID/g.

Question: What about the tissue uptake at 1 h ([1]; heart, 1 h Blocked (co-injection of 2-PMPA, 0.5 mg), read-out: Heart uptake) of the same compound?
Answer: Its tissue uptake at 1 h is 0.35 ± 0.06 %ID/g.

Question: And the tissue uptake at 1 h ([1]; heart, 1 h post-injection, read-out: Heart uptake)?
Answer: The tissue uptake at 1 h was 2.9 ± 0.66 %ID/g.

Question: And the tissue uptake at 1 h ([1]; kidneys, 1 h Blocked (co-injection of 2-PMPA, 0.5 mg), read-out: Kidneys uptake)?
Answer: The tissue uptake at 1 h was 4.29 ± 1.34 %ID/g.

Question: And the tissue uptake at 1 h ([1]; kidneys, 1 h post-injection, read-out: Kidneys uptake)?
Answer: The tissue uptake at 1 h was 88.1 ± 17.4 %ID/g.

Question: What about the tissue uptake at 1 h ([1]; lacrimal glands, 1 h Blocked (co-injection of 2-PMPA, 0.5 mg), read-out: Lacrimal Glands uptake) of the same compound?
Answer: Its tissue uptake at 1 h is 0.07 ± 0.05 %ID/g.

Question: And the tissue uptake at 1 h ([1]; lacrimal glands, 1 h post-injection, read-out: Lacrimal Glands uptake)?
Answer: Its tissue uptake at 1 h is 0.06 ± 0.03 %ID/g.

Question: What about the tissue uptake at 1 h ([1]; large intestine, 1 h Blocked (co-injection of 2-PMPA, 0.5 mg), read-out: Large Intestine uptake) of the same compound?
Answer: Its tissue uptake at 1 h is 0.25 ± 0.1 %ID/g.

Question: What about the tissue uptake at 1 h ([1]; large intestine, 1 h post-injection, read-out: Large Intestine uptake) of the same compound?
Answer: Its tissue uptake at 1 h is 1.11 ± 0.42 %ID/g.

Question: What about the tissue uptake at 1 h ([1]; liver, 1 h Blocked (co-injection of 2-PMPA, 0.5 mg), read-out: Liver uptake) of the same compound?
Answer: The tissue uptake at 1 h was 0.59 ± 0.1 %ID/g.

Question: What about the tissue uptake at 1 h ([1]; liver, 1 h post-injection, read-out: Liver uptake) of the same compound?
Answer: The tissue uptake at 1 h was 2.64 ± 0.57 %ID/g.

Question: And the tissue uptake at 1 h ([1]; lncap tumor, 1 h Blocked (co-injection of 2-PMPA, 0.5 mg), read-out: LNCaP Tumor uptake)?
Answer: The tissue uptake at 1 h was 1.87 ± 0.46 %ID/g.

Question: And the tissue uptake at 1 h ([1]; lncap tumor, 1 h post-injection, read-out: LNCaP Tumor uptake)?
Answer: The tissue uptake at 1 h was 6.21 ± 1.25 %ID/g.

Question: What about the tissue uptake at 1 h ([1]; lungs, 1 h Blocked (co-injection of 2-PMPA, 0.5 mg), read-out: Lungs uptake) of the same compound?
Answer: Its tissue uptake at 1 h is 0.81 ± 0.18 %ID/g.

Question: What about the tissue uptake at 1 h ([1]; lungs, 1 h post-injection, read-out: Lungs uptake) of the same compound?
Answer: Its tissue uptake at 1 h is 4.1 ± 0.71 %ID/g.

Question: And the tissue uptake at 1 h ([1]; muscle, 1 h Blocked (co-injection of 2-PMPA, 0.5 mg), read-out: Muscle uptake)?
Answer: The tissue uptake at 1 h was 0.27 ± 0.18 %ID/g.

Question: What about the tissue uptake at 1 h ([1]; muscle, 1 h post-injection, read-out: Muscle uptake) of the same compound?
Answer: The tissue uptake at 1 h was 0.9 ± 0.2 %ID/g.

Question: What about the tissue uptake at 1 h ([1]; pancreas, 1 h Blocked (co-injection of 2-PMPA, 0.5 mg), read-out: Pancreas uptake) of the same compound?
Answer: The tissue uptake at 1 h was 0.27 ± 0.07 %ID/g.

Question: And the tissue uptake at 1 h ([1]; pancreas, 1 h post-injection, read-out: Pancreas uptake)?
Answer: The tissue uptake at 1 h was 2.22 ± 0.66 %ID/g.

Question: And the tissue uptake at 1 h ([1]; salivary glands, 1 h Blocked (co-injection of 2-PMPA, 0.5 mg), read-out: Salivary Glands uptake)?
Answer: The tissue uptake at 1 h was 0.35 ± 0.08 %ID/g.

Question: What about the tissue uptake at 1 h ([1]; salivary glands, 1 h post-injection, read-out: Salivary Glands uptake) of the same compound?
Answer: Its tissue uptake at 1 h is 9.18 ± 2.36 %ID/g.

Question: And the tissue uptake at 1 h ([1]; seminal gland, 1 h Blocked (co-injection of 2-PMPA, 0.5 mg), read-out: Seminal Gland uptake)?
Answer: Its tissue uptake at 1 h is 0.76 ± 0.19 %ID/g.

Question: What about the tissue uptake at 1 h ([1]; seminal glands, 1 h post-injection, read-out: Seminal Glands uptake) of the same compound?
Answer: Its tissue uptake at 1 h is 0.98 ± 0.42 %ID/g.

Question: What about the tissue uptake at 1 h ([1]; small intestine, 1 h Blocked (co-injection of 2-PMPA, 0.5 mg), read-out: Small Intestine uptake) of the same compound?
Answer: The tissue uptake at 1 h was 1.83 ± 0.37 %ID/g.

Question: What about the tissue uptake at 1 h ([1]; small intestine, 1 h post-injection, read-out: Small Intestine uptake) of the same compound?
Answer: Its tissue uptake at 1 h is 4.51 ± 0.87 %ID/g.

Question: And the tissue uptake at 1 h ([1]; spleen, 1 h Blocked (co-injection of 2-PMPA, 0.5 mg), read-out: Spleen uptake)?
Answer: The tissue uptake at 1 h was 0.29 ± 0.03 %ID/g.

Question: What about the tissue uptake at 1 h ([1]; spleen, 1 h post-injection, read-out: Spleen uptake) of the same compound?
Answer: Its tissue uptake at 1 h is 22.1 ± 2.92 %ID/g.

Question: And the tissue uptake at 1 h ([1]; stomach, 1 h Blocked (co-injection of 2-PMPA, 0.5 mg), read-out: Stomach uptake)?
Answer: Its tissue uptake at 1 h is 0.14 ± 0.06 %ID/g.

Question: What about the tissue uptake at 1 h ([1]; stomach, 1 h post-injection, read-out: Stomach uptake) of the same compound?
Answer: The tissue uptake at 1 h was 0.68 ± 0.17 %ID/g.

Question: And the tissue uptake at 1 h ([1]; testes, 1 h Blocked (co-injection of 2-PMPA, 0.5 mg), read-out: Testes uptake)?
Answer: The tissue uptake at 1 h was 0.28 ± 0.07 %ID/g.

Question: What about the tissue uptake at 1 h ([1]; testes, 1 h post-injection, read-out: Testes uptake) of the same compound?
Answer: The tissue uptake at 1 h was 0.92 ± 0.29 %ID/g.

Question: And the tissue uptake at 1 h ([1]; thyroid, 1 h Blocked (co-injection of 2-PMPA, 0.5 mg), read-out: Thyroid uptake)?
Answer: Its tissue uptake at 1 h is 0.33 ± 0.08 %ID/g.

Question: What about the tissue uptake at 1 h ([1]; thyroid, 1 h post-injection, read-out: Thyroid uptake) of the same compound?
Answer: The tissue uptake at 1 h was 4.53 ± 0.74 %ID/g.

Question: What about the “Tumor:Muscle uptake ratio” value (LNCaP tumor xenografts; [3]) of the same compound?
Answer: The value was 9.96 ± 3.13.

Question: And the “Tumour:Blood uptake ratio” value (LNCaP tumor xenografts; [3])?
Answer: The value was 2.21 ± 0.46.

Question: What about the “Tumour:Bone uptake ratio” value (LNCaP tumor xenografts; [3]) of the same compound?
Answer: The value was 8.46 ± 4.80.

Question: And the “Tumour:Kidney uptake ratio” value (LNCaP tumor xenografts; [3])?
Answer: The value was 0.45 ± 0.05.

Question: What about the “Tumor:Muscle uptake ratio” value (LNCaP tumor xenografts; 1 h post-injection) of the same compound?
Answer: The value was 6.58 ± 1.38.

Question: What about the “Tumour:Blood uptake ratio” value (LNCaP tumor xenografts; 1 h post-injection) of the same compound?
Answer: The value was 8.41 ± 2.02.

Question: What about the “Tumour:Bone uptake ratio” value (LNCaP tumor xenografts; 1 h post-injection) of the same compound?
Answer: Its value is 9.31 ± 3.39.

Question: And the “Tumour:Kidney uptake ratio” value (LNCaP tumor xenografts; 1 h post-injection)?
Answer: Its value is 0.07 ± 0.02.

Question: With `O=C(O)CC[C@H](NC(=O)N[C@@H](CCCCNC(=O)[C@H](Cc1ccc2ccccc2c1)NC(=O)c1ccc(CNC(=O)[C@H](CCC(=O)O)NC(=O)[C@H](CCC(=O)O)NC(=O)c2ccc(F)nc2)cc1)C(=O)O)C(=O)O` [^18F-PSMA-1007] as the compound, how does the “nonspecific uptake level in most normal tissues” value [2] read?
Answer: The value was “even higher”.
